Reference: ChEMBL document CHEMBL5375956, “Discovery of Pyrazolo[1,5-a]pyrimidine Derivative as a Novel and Selective ALKBH5 Inhibitor for the Treatment of AML” (J Med Chem, 2023)
Calls of active or inactive are those of the source. The rule behind the calls is not given here.

What was measured:
[1] = Apparent volume of distribution during terminal phase in Sprague-Dawley rat at 10 mg/kg, po measured for 1 to 1440 mins by LC-MS/MS analysis; assay type: ADME, organism-based; details: in vivo, time 1-1440 min, read-out: Vz/F
MV4-11 [2] = test: Downregulation of c-Myc level in human MV4-11 cells upto 10 uM incubated for 48 hrs by Western blot analysis; assay type: functional, cell-based
RNA demethylase ALKBH5 [3] = molecular target: T1, RNA demethylase ALKBH5 (Homo sapiens, UniProt Q6P6C2); test: Inhibition of ALKBH5 (66 to 292 residues)(unknown origin) expressed in Escherichia coli BL21(DE3) using 5'-TAGACATTGCCATTCTCGATAGG (m6A)-TC CGGTCAAACCTAGAC GAATTCCA-3' as substrate incubated for 2 hrs by restriction endonuclease digestion assay; details: dose 25-200 µM
Target sequence in this assay (Q6P6C2 2-394 limits assumed): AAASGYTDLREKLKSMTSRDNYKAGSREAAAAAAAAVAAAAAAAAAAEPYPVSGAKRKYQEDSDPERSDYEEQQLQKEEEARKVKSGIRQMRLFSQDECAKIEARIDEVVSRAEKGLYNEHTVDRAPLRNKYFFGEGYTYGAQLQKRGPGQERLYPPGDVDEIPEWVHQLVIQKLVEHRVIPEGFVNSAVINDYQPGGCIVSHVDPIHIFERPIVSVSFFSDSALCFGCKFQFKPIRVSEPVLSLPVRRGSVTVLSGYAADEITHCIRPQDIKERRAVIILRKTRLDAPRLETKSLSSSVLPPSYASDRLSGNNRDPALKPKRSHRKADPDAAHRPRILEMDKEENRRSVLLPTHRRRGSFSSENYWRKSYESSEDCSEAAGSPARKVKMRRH

[4] = AUC (0 to infinity) in Sprague-Dawley rat at 10 mg/kg, po measured for 1 to 1440 mins by LC-MS/MS analysis; assay type: ADME, organism-based; details: in vivo
[5] = Toxicity in nude mouse xenografted with human MV4-11 cells assessed as lung damage at 10 to 40 mg/kg, ip treated every day for 14 days by H and E staining based analysis; assay type: organism-based; details: in vivo, 336 h, dose 10-40 mg/kg, time 14 day
MV4-11 [6] = test: Antitumor activity against human MV4-11 cells xenografted in nude mouse assessed as tumor growth inhibition at 40 mg/kg, ip treated every day for 14 days relative to control; assay type: functional; details: MV4-11, 336 h, time 14 day, read-out: TGI
[7] = molecular target: T2, Alpha-ketoglutarate-dependent dioxygenase FTO (Homo sapiens, UniProt Q9C0B1); test: Inhibition of FTO (32 to 505 residues)(unknown origin) expressed in Escherichia coli BL21(DE3) by FP assay
Target sequence in this assay (Q9C0B1 whole entry, the tested form may be a part): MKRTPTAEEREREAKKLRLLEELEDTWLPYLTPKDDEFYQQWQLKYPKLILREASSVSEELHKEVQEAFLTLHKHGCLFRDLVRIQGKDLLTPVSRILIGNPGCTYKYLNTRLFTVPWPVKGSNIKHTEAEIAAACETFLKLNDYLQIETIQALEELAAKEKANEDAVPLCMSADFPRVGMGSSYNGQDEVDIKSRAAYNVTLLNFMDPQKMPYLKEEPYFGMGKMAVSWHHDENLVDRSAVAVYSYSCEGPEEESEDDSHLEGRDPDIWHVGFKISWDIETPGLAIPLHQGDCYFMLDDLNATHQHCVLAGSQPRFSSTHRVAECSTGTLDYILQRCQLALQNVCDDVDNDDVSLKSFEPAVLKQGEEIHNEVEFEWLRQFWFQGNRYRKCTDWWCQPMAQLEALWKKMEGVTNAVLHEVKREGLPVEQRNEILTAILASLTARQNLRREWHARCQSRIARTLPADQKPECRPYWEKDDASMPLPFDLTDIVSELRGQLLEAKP

[8] = Toxicity in nude mouse xenografted with human MV4-11 cells assessed as liver damage at 10 to 40 mg/kg, ip treated every day for 14 days by H and E staining based analysis; assay type: organism-based; details: in vivo, 336 h, dose 10-40 mg/kg, time 14 day
[9] = Oral bioavailability in Sprague-Dawley rat at 10 mg/kg measured for 1 to 1440 mins by LC-MS/MS analysis; assay type: ADME, organism-based; details: in vivo, time 1-1440 min
MOLM-13 [10] = test: Induction of apoptosis in human MOLM-13 cells assessed as late apoptosis cells at 10 uM incubated for 48 hrs by Annexin V-FITC/PI staining based flow cytometry (reference value: 6.49 %); assay type: functional
RNA demethylase ALKBH5 [11] = molecular target: T1, RNA demethylase ALKBH5; test: Inhibition of ALKBH5 (66 to 292 residues)(unknown origin) expressed in Escherichia coli BL21(DE3) using 5'-ATTGTCA(m6A)CAGCAGA-FAM-3' as substrate incubated for 30 mins in presence of 2 uM of 2-OG by FP based competitive binding assay
Target sequence in this assay (Q6P6C2 whole entry, the tested form may be a part): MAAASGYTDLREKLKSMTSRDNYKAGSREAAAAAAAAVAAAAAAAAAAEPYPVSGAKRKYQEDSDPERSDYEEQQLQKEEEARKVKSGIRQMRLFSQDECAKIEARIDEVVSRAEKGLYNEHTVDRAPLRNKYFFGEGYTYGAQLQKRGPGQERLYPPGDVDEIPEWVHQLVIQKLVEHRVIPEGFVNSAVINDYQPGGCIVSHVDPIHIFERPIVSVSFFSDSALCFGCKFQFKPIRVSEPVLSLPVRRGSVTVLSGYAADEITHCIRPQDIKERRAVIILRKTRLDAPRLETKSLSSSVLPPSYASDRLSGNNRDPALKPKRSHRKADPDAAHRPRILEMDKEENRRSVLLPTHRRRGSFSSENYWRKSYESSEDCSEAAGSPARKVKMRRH

[12] = Tmax in Sprague-Dawley rat at 10 mg/kg, po measured for 1 to 1440 mins by LC-MS/MS analysis; assay type: ADME, organism-based; details: in vivo, time 1-1440 min
[13] = molecular target: T2, Alpha-ketoglutarate-dependent dioxygenase FTO; test: Binding affinity to NT-647-NHS fluorescent dye-labeled FTO (32 to 505 residues)(unknown origin) expressed in Escherichia coli BL21(DE3) using m6A-ssDNA as substrate incubated for 15 mins by MST assay
Target sequence in this assay (Q9C0B1 whole entry, looked up, the tested form may be a part): as the sequence (Q9C0B1 whole entry, the tested form may be a part) above

[14] = Toxicity in nude mouse xenografted with human MV4-11 cells assessed as body weight change at 10 to 40 mg/kg, ip treated every day for 14 days; assay type: organism-based; details: in vivo, 336 h, dose 10-40 mg/kg, time 14 day
RNA demethylase ALKBH5 [15] = molecular target: T1, RNA demethylase ALKBH5; test: Competitive binding affinity to ALKBH5 (66 to 292 residues)(unknown origin) expressed in Escherichia coli BL21(DE3) using 5'-ATTGTCA(m6A)CAGCAGA-FAM-3' as substrate assessed as dissociation constant incubated for 30 mins in presence of 2-OG by FP assay
Target sequence in this assay (Q6P6C2 whole entry, the tested form may be a part): as the sequence (Q6P6C2 whole entry, the tested form may be a part) above

MOLM-13 [16] = test: Downregulation of TACC3 level in human MOLM-13 cells upto 10 uM incubated for 48 hrs by Western blot analysis; assay type: functional, cell-based
MV4-11 [17] = test: Antiproliferative activity against human MV4-11 cells assessed as inhibition of cell proliferation incubated for 72 hrs by Cell Titer Luminescence assay; assay type: functional, cell-based; details: MV4-11, 72 h
[18] = Cmax in Sprague-Dawley rat at 2 mg/kg, iv measured for 1 to 1440 mins by LC-MS/MS analysis; assay type: ADME, organism-based; details: in vivo
MOLM-13 [19] = test: Induction of apoptosis in human MOLM-13 cells assessed as viable cells at 10 uM incubated for 48 hrs by Annexin V-FITC/PI staining based flow cytometry (reference value: 89.8 %); assay type: functional; details: read-out: Activity
RNA demethylase ALKBH5 [20] = molecular target: T1, RNA demethylase ALKBH5; test: Binding affinity to NT-647-NHS fluorescent dye-labeled wild-type ALKBH5 (66 to 292 residues)(unknown origin) expressed in Escherichia coli BL21(DE3) using m6A-ssDNA as substrate assessed as dissociation constant incubated for 15 mins by MST assay
Target sequence in this assay (Q6P6C2 whole entry, the tested form may be a part): as above

MV4-11 [21] = test: Induction of apoptosis in human MV4-11 cells assessed as viable cells at 10 uM incubated for 48 hrs by Annexin V-FITC/PI staining based flow cytometry (reference value: 89.8 %); assay type: functional; details: read-out: Activity
RNA demethylase ALKBH5 [22] = molecular target: RNA demethylase ALKBH5 (Homo sapiens, UniProt Q6P6C2, R277A/Y139A); test: Binding affinity to NT-647-NHS fluorescent dye-labeled ALKBH5 Y139A/R277A mutant (unknown origin) expressed in Escherichia coli BL21(DE3) using m6A-ssDNA as substrate assessed as dissociation constant incubated for 15 mins by MST assay
Sequence of RNA demethylase ALKBH5 (Homo sapiens, UniProt Q6P6C2, R277A/Y139A) (Q6P6C2 2-394 Y139A/R277A limits assumed): as the sequence (Q6P6C2 2-394 limits assumed) above, with Y138A, R276A counted along it

MV4-11 [23] = test: Downregulation of TACC3 level in human MV4-11 cells upto 10 uM incubated for 48 hrs by Western blot analysis; assay type: functional, cell-based
RNA demethylase ALKBH5 [24] = molecular target: T1, RNA demethylase ALKBH5; test: Inhibition of ALKBH5 in human MOLM-13 cells assessed as increase in m6A RNA level by dot blot assay; assay type: cell-based; details: dose <= 20.0 µM
Target sequence in this assay (Q6P6C2 2-394 limits assumed): as the sequence (Q6P6C2 2-394 limits assumed) above

[25] = Half life in Sprague-Dawley rat at 10 mg/kg, po measured for 1 to 1440 mins by LC-MS/MS analysis; assay type: ADME, organism-based; details: in vivo, time 1-1440 min
[26] = molecular target: T3, Alpha-ketoglutarate-dependent dioxygenase alkB homolog 3 (Homo sapiens) (UniProt Q96Q83); test: Inhibition of ALKBH3 (62 to 286 residues)(unknown origin) expressed in Escherichia coli BL21(DE3) using 5'-TAGACATTGCCATTCTCGATAGG(m6A)-TCCGGTCAAACCTAGACGAATTCCA-3' as substrate at 100 uM incubated for 2 hrs by restriction endonuclease digestion assay
T3 sequence (whole entry): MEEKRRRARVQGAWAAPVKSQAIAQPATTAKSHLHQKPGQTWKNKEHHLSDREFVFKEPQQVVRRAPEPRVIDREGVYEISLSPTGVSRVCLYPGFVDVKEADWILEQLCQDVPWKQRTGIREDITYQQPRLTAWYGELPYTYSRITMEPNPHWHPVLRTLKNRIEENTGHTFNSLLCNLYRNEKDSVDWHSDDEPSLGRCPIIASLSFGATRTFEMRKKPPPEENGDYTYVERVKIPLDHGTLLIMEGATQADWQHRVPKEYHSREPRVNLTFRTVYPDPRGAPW

MV4-11 [27] = test: Induction of apoptosis in human MV4-11 cells assessed as viable cells at 5 uM incubated for 48 hrs by Annexin V-FITC/PI staining based flow cytometry (reference value: 89.8 %); assay type: functional; details: read-out: Activity
MV4-11 [28] = test: Downregulation of c-Myc mRNA level in human MV4-11 cells at 5 to 10 uM incubated for 48 hrs by qRT-PCR analysis; assay type: functional, cell-based; details: dose 5-10 µM

Vd/F [1]: 6.18 L/kg
inhibition (RNA demethylase ALKBH5 [3]): Dose-Dependent Effect
AUC(0-inf) [4]: 5820 ng·h/mL
IC50 [7]: > 200 µM
bioavailability [9]: 17.3%
IC50 (RNA demethylase ALKBH5 [11]): 4.64 µM
Tmax [12]: 0.5 h
Activity [13]: inactive
Kd (RNA demethylase ALKBH5 [15]): ~0.0657 µM
IC50 (MV4-11 [17]): 1.2 µM
Cmax [18]: 13400 ng/mL
Kd (RNA demethylase ALKBH5 [20]): 11.2 µM
Kd (RNA demethylase ALKBH5 [22]): 15.8 µM
inhibition (RNA demethylase ALKBH5 [24]): Dose-Dependent Effect
half-life [25]: 2.47 h
inhibition [26]: inactive
SMILES: O=C(OCc1ccc(C(F)(F)F)cc1)c1ccc(-c2cc3ncc(C(=O)c4c(O)ccc([N+](=O)[O-])c4O)cn3n2)cc1
Activity (MV4-11 [2]): Active
Activity [5]: Non-Toxic
inhibition in vivo at 40 mg/kg (MV4-11 [6]): 70.5%
Activity [8]: Non-Toxic
Activity (MOLM-13 [10]): 31.5%
Activity [14]: Non-Toxic
Activity (MOLM-13 [16]): Active
viability at 10 µM (MOLM-13 [19]): 61.5%
viability at 10 µM (MV4-11 [21]): 39.9%
Activity (MV4-11 [23]): Active
viability at 5 µM (MV4-11 [27]): 59%
Activity (MV4-11 [28]): Active
